# Results taken from ChEMBL document CHEMBL3885881, “DrugMatrix”.
# Organism: Rattus norvegicus
# Experiment: DrugMatrix - Regimen: Daily Repeat
# Assay type: toxicity, organism-based, Sprague-Dawley
# Set-up: regimen Daily Repeat, gender Male, age 6-8 weeks
# Settings: in vivo, po, route oral GAVAGE, vehicle .5 % CMC; for BASOPHIL / EOSINOPHIL / ERYTHROCYTE COUNT / HEMATOCRIT / HEMOGLOBIN / LEUKOCYTE COUNT / LYMPHOCYTE / MEAN CORPUSCULAR HEMOGLOBIN / MEAN CORPUSCULAR HEMOGLOBIN CONCENTRATION / MEAN CORPUSCULAR VOLUME / MONOCYTE / NEUTROPHIL / PLATELET COUNT: tissue Blood; for ALANINE AMINOTRANSFERASE / ALBUMIN / ALKALINE PHOSPHATASE / ASPARTATE AMINOTRANSFERASE / BLOOD UREA NITROGEN / CHLORIDE / CHOLESTEROL / CREATINE PHOSPHOKINASE / CREATININE / GLUCOSE / PHOSPHORUS / SODIUM / TOTAL PROTEIN: tissue Plasma
# [1] = 0 mg/kg, 72 h, dose level Control, time 3 day
# [2] = 0 mg/kg, 120 h, dose level Control, time 5 day
# [3] = 10 mg/kg, 72 h, dose level Low, time 3 day
# [4] = 10 mg/kg, 120 h, dose level Low, time 5 day
# [5] = 2000 mg/kg, 72 h, dose level High, time 3 day
# [6] = 2000 mg/kg, 120 h, dose level High, time 5 day
compound,measurement,setting,value
CCn1cc(C(=O)O)c(=O)c2cc(F)c(N3CCNC(C)C3)c(F)c21 (stereo unspecified) [LOMEFLOXACIN],BASOPHIL,[1],0%
same,EOSINOPHIL,[1],0.4%
same,ERYTHROCYTE COUNT,[1],6.43 x10E6/uL
same,HEMATOCRIT,[1],37.36%
same,HEMOGLOBIN,[1],13.98 G/DL
same,LEUKOCYTE COUNT,[1],13 x10E3/uL
same,LYMPHOCYTE,[1],81.4%
same,MEAN CORPUSCULAR HEMOGLOBIN,[1],21.9 pg
same,MEAN CORPUSCULAR HEMOGLOBIN CONCENTRATION,[1],37.4 G/DL
same,MEAN CORPUSCULAR VOLUME,[1],58.52 fL
same,MONOCYTE,[1],0.4%
same,NEUTROPHIL,[1],18%
same,PLATELET COUNT,[1],1386 x10E3/uL
same,ALANINE AMINOTRANSFERASE,[1],39.33 u/L
same,ALBUMIN,[1],3.57 G/DL
same,ALKALINE PHOSPHATASE,[1],283.83 u/L
same,ASPARTATE AMINOTRANSFERASE,[1],69.5 u/L
same,BLOOD UREA NITROGEN,[1],14.83 mg/dL
same,CHLORIDE,[1],107.33 MEQ/L
same,CHOLESTEROL,[1],75.17 mg/dL
same,CREATINE PHOSPHOKINASE,[1],107.67 u/L
same,CREATININE,[1],0.48 mg/dL
same,GLUCOSE,[1],172.5 mg/dL
same,PHOSPHORUS,[1],10.48 mg/dL
same,SODIUM,[1],152.33 MEQ/L
same,TOTAL PROTEIN,[1],5.9 G/DL
same,BASOPHIL,[2],0%
same,EOSINOPHIL,[2],0.4%
same,ERYTHROCYTE COUNT,[2],6.96 x10E6/uL
same,HEMATOCRIT,[2],41.12%
same,HEMOGLOBIN,[2],15.24 G/DL
same,LEUKOCYTE COUNT,[2],11.06 x10E3/uL
same,LYMPHOCYTE,[2],88.6%
same,MEAN CORPUSCULAR HEMOGLOBIN,[2],21.96 pg
same,MEAN CORPUSCULAR HEMOGLOBIN CONCENTRATION,[2],37.1 G/DL
same,MEAN CORPUSCULAR VOLUME,[2],59.12 fL
same,MONOCYTE,[2],0.2%
same,NEUTROPHIL,[2],10.8%
same,PLATELET COUNT,[2],1155.8 x10E3/uL
same,ALANINE AMINOTRANSFERASE,[2],36.33 u/L
same,ALBUMIN,[2],3.72 G/DL
same,ALKALINE PHOSPHATASE,[2],340.33 u/L
same,ASPARTATE AMINOTRANSFERASE,[2],68.33 u/L
same,BLOOD UREA NITROGEN,[2],15 mg/dL
same,CHLORIDE,[2],108.17 MEQ/L
same,CHOLESTEROL,[2],74.67 mg/dL
same,CREATINE PHOSPHOKINASE,[2],110.67 u/L
same,CREATININE,[2],0.47 mg/dL
same,GLUCOSE,[2],171.33 mg/dL
same,PHOSPHORUS,[2],10.05 mg/dL
same,SODIUM,[2],155.5 MEQ/L
same,TOTAL PROTEIN,[2],6.33 G/DL
same,BASOPHIL,[3],0%
same,EOSINOPHIL,[3],0.33%
same,ERYTHROCYTE COUNT,[3],6.14 x10E6/uL
same,HEMATOCRIT,[3],37.73%
same,HEMOGLOBIN,[3],14.37 G/DL
same,LEUKOCYTE COUNT,[3],14.47 x10E3/uL
same,LYMPHOCYTE,[3],89.33%
same,MEAN CORPUSCULAR HEMOGLOBIN,[3],23.47 pg
same,MEAN CORPUSCULAR HEMOGLOBIN CONCENTRATION,[3],38.1 G/DL
same,MEAN CORPUSCULAR VOLUME,[3],61.53 fL
same,MONOCYTE,[3],0%
same,NEUTROPHIL,[3],10.33%
same,PLATELET COUNT,[3],1193.33 x10E3/uL
same,ALANINE AMINOTRANSFERASE,[3],39 u/L
same,ALBUMIN,[3],3.37 G/DL
same,ALKALINE PHOSPHATASE,[3],307 u/L
same,ASPARTATE AMINOTRANSFERASE,[3],60.67 u/L
same,BLOOD UREA NITROGEN,[3],11.33 mg/dL
same,CHLORIDE,[3],106.67 MEQ/L
same,CHOLESTEROL,[3],65.33 mg/dL
same,CREATINE PHOSPHOKINASE,[3],106 u/L
same,CREATININE,[3],0.53 mg/dL
same,GLUCOSE,[3],175.33 mg/dL
same,PHOSPHORUS,[3],12.17 mg/dL
same,SODIUM,[3],151.67 MEQ/L
same,TOTAL PROTEIN,[3],5.53 G/DL
same,BASOPHIL,[4],0%
same,EOSINOPHIL,[4],0%
same,ERYTHROCYTE COUNT,[4],6.95 x10E6/uL
same,HEMATOCRIT,[4],41.1%
same,HEMOGLOBIN,[4],15.1 G/DL
same,LEUKOCYTE COUNT,[4],16.87 x10E3/uL
same,LYMPHOCYTE,[4],90.67%
same,MEAN CORPUSCULAR HEMOGLOBIN,[4],21.77 pg
same,MEAN CORPUSCULAR HEMOGLOBIN CONCENTRATION,[4],36.73 G/DL
same,MEAN CORPUSCULAR VOLUME,[4],59.17 fL
same,MONOCYTE,[4],0.33%
same,NEUTROPHIL,[4],9%
same,PLATELET COUNT,[4],1212.33 x10E3/uL
same,ALANINE AMINOTRANSFERASE,[4],46.33 u/L
same,ALBUMIN,[4],3.43 G/DL
same,ALKALINE PHOSPHATASE,[4],276.33 u/L
same,ASPARTATE AMINOTRANSFERASE,[4],68 u/L
same,BLOOD UREA NITROGEN,[4],13.67 mg/dL
same,CHLORIDE,[4],105 MEQ/L
same,CHOLESTEROL,[4],70 mg/dL
same,CREATINE PHOSPHOKINASE,[4],104.33 u/L
same,CREATININE,[4],0.57 mg/dL
same,GLUCOSE,[4],159.33 mg/dL
same,PHOSPHORUS,[4],10.67 mg/dL
same,SODIUM,[4],151.67 MEQ/L
same,TOTAL PROTEIN,[4],5.7 G/DL
same,BASOPHIL,[5],0%
same,EOSINOPHIL,[5],0%
same,ERYTHROCYTE COUNT,[5],6.7 x10E6/uL
same,HEMATOCRIT,[5],41%
same,HEMOGLOBIN,[5],15.63 G/DL
same,LEUKOCYTE COUNT,[5],12.43 x10E3/uL
same,LYMPHOCYTE,[5],83%
same,MEAN CORPUSCULAR HEMOGLOBIN,[5],23.33 pg
same,MEAN CORPUSCULAR HEMOGLOBIN CONCENTRATION,[5],38.17 G/DL
same,MEAN CORPUSCULAR VOLUME,[5],61.2 fL
same,MONOCYTE,[5],0.33%
same,NEUTROPHIL,[5],16.67%
same,PLATELET COUNT,[5],1479.67 x10E3/uL
same,ALANINE AMINOTRANSFERASE,[5],32 u/L
same,ALBUMIN,[5],3.53 G/DL
same,ALKALINE PHOSPHATASE,[5],214.33 u/L
same,ASPARTATE AMINOTRANSFERASE,[5],57.67 u/L
same,BLOOD UREA NITROGEN,[5],19 mg/dL
same,CHLORIDE,[5],103.33 MEQ/L
same,CHOLESTEROL,[5],62.67 mg/dL
same,CREATINE PHOSPHOKINASE,[5],126 u/L
same,CREATININE,[5],0.67 mg/dL
same,GLUCOSE,[5],129.33 mg/dL
same,PHOSPHORUS,[5],11.57 mg/dL
same,SODIUM,[5],149.33 MEQ/L
same,TOTAL PROTEIN,[5],5.93 G/DL
same,BASOPHIL,[6],0%
same,EOSINOPHIL,[6],0%
same,ERYTHROCYTE COUNT,[6],6.87 x10E6/uL
same,HEMATOCRIT,[6],40.23%
same,HEMOGLOBIN,[6],15.07 G/DL
same,LEUKOCYTE COUNT,[6],19.9 x10E3/uL
same,LYMPHOCYTE,[6],96.33%
same,MEAN CORPUSCULAR HEMOGLOBIN,[6],21.93 pg
same,MEAN CORPUSCULAR HEMOGLOBIN CONCENTRATION,[6],37.47 G/DL
same,MEAN CORPUSCULAR VOLUME,[6],58.57 fL
same,MONOCYTE,[6],0%
same,NEUTROPHIL,[6],3.67%
same,PLATELET COUNT,[6],1396 x10E3/uL
same,ALANINE AMINOTRANSFERASE,[6],40.67 u/L
same,ALBUMIN,[6],3.47 G/DL
same,ALKALINE PHOSPHATASE,[6],183 u/L
same,ASPARTATE AMINOTRANSFERASE,[6],56.33 u/L
same,BLOOD UREA NITROGEN,[6],13.33 mg/dL
same,CHLORIDE,[6],106 MEQ/L
same,CHOLESTEROL,[6],63 mg/dL
same,CREATINE PHOSPHOKINASE,[6],125.67 u/L
same,CREATININE,[6],0.5 mg/dL
same,GLUCOSE,[6],154.67 mg/dL
same,PHOSPHORUS,[6],10.7 mg/dL
same,SODIUM,[6],152.33 MEQ/L
same,TOTAL PROTEIN,[6],5.8 G/DL
